Experimental data reported in US7982042B2, “Thiozanthene derivatives as delta-opioid modulators” (priority 2003, dated 2011).
Read-outs that look alike come from different tables or passages of the source.

Tests used:
[1] = molecular target: T1, Rat brain delta opioid receptor (Rattus norvegicus, UniProt P33533); assay: Rat brain delta opioid receptor binding
T1 construct: from tissue; host or cells: rat brain

[2] = molecular target: T2, Rat brain mu opioid receptor (Rattus norvegicus, UniProt P33535); assay: Rat brain mu opioid receptor binding assay ([3H]DAMGO)
T2 construct: from tissue; host or cells: forebrain of male Sprague Dawley rats
Method: • Procedure: Male, Sprague Dawley (150-250 g, VAF, Charles River, Kingston, N.Y.) are killed by CO2, and their brains removed and placed immediately in ice cold Tris HCl buffer (50 mM, pH 7.4). The forebrains are separated from the remainder of the brain by a coronal transection, beginning dorsally at the colliculi and passing ventrally through the midbrain-pontine junction. After dissection, the forebrains are homogenized in Tris buffer in a Teflon®-glass homogenizer. The homogenate is diluted to a concentration of 1 g of forebrain tissue per 80 mL Tris and centrifuged at 39,000×g for 10 min. The pellet is resuspended in the same volume of Tris buffer containing 5 mM MgCl2 with several brief pulses from a Polytron homogenizer. This particulate preparation is used for the mu-opioid binding assays. […] Kd and Ki values are calculated using GraphPad PRISM data analysis program.

[3] = molecular target: T3, human delta opioid receptor (Homo sapiens, UniProt P41143); assay: [35S]GTPγS binding assay in CHO-hδ cell membranes; assay type: biochemical
T3 construct: purchased Receptor Biology, Inc. (Baltimore, Md.); host or cells: CHO cells expressing the human delta receptor (membranes)
Method: CHO-hδ cell membranes are purchased from Receptor Biology, Inc. (Baltimore, Md.). 10 mg/ml of membrane protein is suspended in 10 mM TRIS-HC pH 7.2, 2 mM EDTA, 10% sucrose.
(§1) Membranes are maintained at 4-8° C. 1 ml of membranes is added into 15 ml cold binding assay buffer. The assay buffer contained 50 mM HEPES, pH 7.6, 5 mM MgCl2, 100 mM NaCl, 1 mM DTT and 1 mM EDTA. The membrane suspension is homogenized with a Polytron 2 times and centrifuged at 3000 rpm for 10 min. The supernatant is then centrifuged at 18,000 rpm for 20 min. The pellet is saved in a tube and 10 ml assay buffer is added into the tube. The pellet and buffer are mixed with a Polytron.
(§2) The pellet membranes (20 μg/ml) are preincubated with SPA (10 mg/ml) at 25° C. for 45 min in the assay buffer. The SPA (5 mg/ml) coupled with membranes (10 μg/ml) is then incubated with 0.5 nM [^35S]GTPgS in the same HEPES buffer containing 50 μM GDP in total volume of 200 μl. Increasing concentrations of receptor agonists are used to stimulate [^35S]GTPgS binding. The basal binding is tested in the absence of agonists and non-specific binding is tested in the presence of 10 μM unlabeled GTP S. The data are analyzed on a Top counter.

[4] = molecular target: T4, human mu opioid receptor (Homo sapiens, UniProt P35372); assay: [35S]GTPγS binding assay in CHO-hμ cell membranes; assay type: biochemical; settings: inhibition relative to 1 uM DAMGO; for inhibition at 10 µM: read-out: hMOR GTPγS % I @10 μM
T4 construct: purchased Receptor Biology, Inc. (Baltimore, Md.); host or cells: CHO cells expressing the human mu receptor (membranes)
Method: CHO-hμ cell membranes are purchased from Receptor Biology, Inc. (Baltimore, Md.). About 10 mg/ml of membrane protein is suspended in 10 mM TRIS-HC pH 7.2, 2 mM EDTA, 10% sucrose.
as §1, with “assay buffer contains 50 mM” for “assay buffer contained 50 mM”, “is added to the tube.” for “is added into the tube.”
as §2, with “25 C′” for “25° C.”, “present” for “presence of”, “GTPγS.” for “GTP S.”
% of Basal=(stimulate−non-specific)*100/(basal−non specific). % inhibition value values are calculated using a formula, % Inhibition=(% Basal of 1 uM DAMGO−% Basal of compound)*100/(% Basal of 1 uM DAMGO−100)

[5] = hDOR GTPγS EC50, human delta opioid receptor GTPγS functional assay
[6] = human delta opioid receptor GTPγS functional assay, read-out: hDOR GTPγS EC50

T1 sequence (P33533 whole entry): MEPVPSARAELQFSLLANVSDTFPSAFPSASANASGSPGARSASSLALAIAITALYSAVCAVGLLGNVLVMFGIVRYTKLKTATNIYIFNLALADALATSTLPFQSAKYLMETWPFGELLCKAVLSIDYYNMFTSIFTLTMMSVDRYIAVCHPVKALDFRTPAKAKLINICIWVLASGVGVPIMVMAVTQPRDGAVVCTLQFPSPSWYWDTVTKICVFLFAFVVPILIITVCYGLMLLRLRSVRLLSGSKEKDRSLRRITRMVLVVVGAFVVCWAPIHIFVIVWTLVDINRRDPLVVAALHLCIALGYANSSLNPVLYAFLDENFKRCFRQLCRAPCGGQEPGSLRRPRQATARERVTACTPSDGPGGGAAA
T4 sequence (P35372 whole entry): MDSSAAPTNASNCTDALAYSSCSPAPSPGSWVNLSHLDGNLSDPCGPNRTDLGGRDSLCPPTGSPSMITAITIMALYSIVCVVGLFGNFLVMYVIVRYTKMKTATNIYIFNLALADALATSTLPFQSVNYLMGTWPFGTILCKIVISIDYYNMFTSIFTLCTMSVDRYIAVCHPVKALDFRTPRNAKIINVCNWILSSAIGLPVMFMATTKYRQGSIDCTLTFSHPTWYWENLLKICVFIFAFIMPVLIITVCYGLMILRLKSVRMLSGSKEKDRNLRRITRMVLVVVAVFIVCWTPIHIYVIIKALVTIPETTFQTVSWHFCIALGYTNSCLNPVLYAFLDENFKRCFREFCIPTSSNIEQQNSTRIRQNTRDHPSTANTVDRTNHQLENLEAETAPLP
T2 sequence (P33535 whole entry): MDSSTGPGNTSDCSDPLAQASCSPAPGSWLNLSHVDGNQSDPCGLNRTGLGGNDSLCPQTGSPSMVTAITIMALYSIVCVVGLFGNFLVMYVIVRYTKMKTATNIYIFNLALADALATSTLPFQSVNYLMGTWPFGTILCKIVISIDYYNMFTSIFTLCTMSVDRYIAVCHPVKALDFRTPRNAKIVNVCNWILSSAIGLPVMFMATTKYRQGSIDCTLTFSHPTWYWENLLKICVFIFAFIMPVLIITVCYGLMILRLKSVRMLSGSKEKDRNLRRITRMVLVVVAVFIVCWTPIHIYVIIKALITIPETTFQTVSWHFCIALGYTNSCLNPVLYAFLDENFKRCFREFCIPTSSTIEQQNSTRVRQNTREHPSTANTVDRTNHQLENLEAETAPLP
T3 sequence (P41143 whole entry): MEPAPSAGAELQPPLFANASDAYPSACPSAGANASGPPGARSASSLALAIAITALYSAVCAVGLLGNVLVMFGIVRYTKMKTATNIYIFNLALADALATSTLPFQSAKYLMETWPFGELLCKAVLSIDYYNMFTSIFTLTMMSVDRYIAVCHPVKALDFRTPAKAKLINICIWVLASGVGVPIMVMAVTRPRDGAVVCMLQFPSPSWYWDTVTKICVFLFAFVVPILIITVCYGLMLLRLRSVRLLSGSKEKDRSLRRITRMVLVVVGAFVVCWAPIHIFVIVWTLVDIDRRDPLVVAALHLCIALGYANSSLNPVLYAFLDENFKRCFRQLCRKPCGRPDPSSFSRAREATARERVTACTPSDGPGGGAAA

Structure (SMILES)	Ki ([1]; rDOR Ki)	Ki ([2]; rMOR Ki)	EC50 [3, 5]	inhibition at 10 µM [4]	Ki ([2]; read-out: rMOR Ki)	EC50 [3, 6]	Ki ([1]; read-out: rDOR Ki)	hMOR GTPγS % I @10 μM [4]
CCN(CC)C(=O)c1ccc2c(c1)Oc1ccccc1C2=C1CCNCC1 [Compound 3, 9-Piperidin-4-ylidene-9H-xanthene-3-carboxylic acid diethylamide]	0.95 nM	6790 nM	47 nM	1%				
CCN(CC)C(=O)c1ccc2c(c1)OCc1ccccc1C2=C1CCN(Cc2ccc3c(c2)OCO3)CC1 [Compound 4, 11-(1-Benzo[1,3]dioxol-5-ylmethyl-piperidin-4-ylidene)-6,11-dihydro-dibenzo[b,e]oxepine-3-carboxylic acid diethylamide]	0.39 nM			9%	301 nM	552 nM		
CCN(CC)C(=O)c1ccc2c(c1)Oc1ccccc1C2=C1CCN(C)CC1 [Compound 7, 9-(1-Methyl-piperidin-4-ylidene)-9H-xanthene-3-carboxylic acid diethylamide]	25.7 nM	9190 nM		1%				
C=CCN1CCC(=C2c3ccccc3Oc3cc(C(=O)N(CC)CC)ccc32)CC1 [Compound 8, 9-(1-Allyl-piperidin-4-ylidene)-9H-xanthene-3-carboxylic acid diethylamide]	2.1 nM			1%	2820 nM	620 nM		
CCN(CC)C(=O)c1ccc2c(c1)Oc1ccccc1C2=C1CCN(CCc2ccccc2)CC1 [Compound 22]	45.4 nM			2%	2130 nM	> 10000 nM		
CCN(CC)C(=O)c1ccc2c(c1)Oc1ccccc1C2=C1CC2CCC(C1)N2 [Compound 24, 9-(8-Aza-bicyclo[3.2.1]oct-3-ylidene)-9H-xanthene-3-carboxylic acid diethylamide]	0.57 nM	5690 nM	10.2 nM	1%				
CCNC(=O)c1ccc2c(c1)OCc1ccccc1C2=C1CC2CCC(C1)N2CCc1ccccc1 [Compound 26, 1-(8-Phenethyl-8-aza-bicyclo[3.2.1]oct-3-ylidene)-6,11-dihydro-dibenzo[b,e]oxepine-3-carboxylic acid ethylamide]					15.6 nM		5480 nM	41.00%
CCN(CC)C(=O)c1ccc2c(c1)Oc1ccccc1C2=C1CCN(Cc2ccoc2)CC1 [Compound 28, 9-(1-Furan-3-ylmethyl-piperidin-4-ylidene)-9H-xanthene-3-carboxylic acid diethylamide]	0.07 nM	811 nM	70.3 nM	24%				
CCN(CC)C(=O)c1ccc2c(c1)Oc1ccccc1C2=C1CCN(Cc2ccccn2)CC1 [Compound 29]	0.05 nM	362 nM	31.6 nM	34%				
CCN(CC)C(=O)c1ccc2c(c1)Oc1ccccc1C2=C1CCN(Cc2ccccc2O)CC1 [Compound 30]	10.9 nM			24%	912 nM	2480 nM		
CCN(CC)C(=O)c1ccc2c(c1)Oc1ccccc1C2=C1CCN(C(=N)N)CC1 [Compound 31, 9-(1-Carbamimidoyl-piperidin-4-ylidene)-9H-xanthene-3-carboxylic acid diethylamide]	29.8 nM			14%	564 nM	253 nM		
CCN(CC)C(=O)c1ccc2c(c1)Oc1ccccc1C2=C1CCN(CCO)CC1 [Compound 35, 9-[1-(2-Hydroxy-ethyl)-piperidin-4-ylidene]-9H-xanthene-3-carboxylic acid diethylamide]	7.01 nM			17%	> 10000 nM	271 nM		
CCN(CC)C(=O)c1ccc2c(c1)Oc1ccccc1C2=C1CCN(C=Nc2ccccc2)CC1 [Compound 36, 9-(1-Phenyliminomethyl-piperidin-4-ylidene)-9H-xanthene-3-carboxylic acid diethylamide]	0.79 nM	> 10000 nM	42.5 nM	14%				
CCN(CC)C(=O)c1ccc2c(c1)Oc1ccccc1C2=C1CCN(C=S)CC1 [Compound 37, 9-(1-Thioformyl-piperidin-4-ylidene)-9H-xanthene-3-carboxylic acid diethylamide]	2.02 nM	> 10000 nM	921 nM	5%				
C=CCN1C2CCC1CC(=C1c3ccccc3Oc3cc(C(=O)N(CC)CC)ccc31)C2 [Compound 38, 9-(8-Allyl-8-aza-bicyclo[3.2.1]oct-3-ylidene)-9H-xanthene-3-carboxylic acid diethylamide]	31.8 nM	5520 nM	342 nM					
CCN(CC)C(=O)c1ccc2c(c1)Oc1ccccc1C2=C1CC2CCC(C1)N2CCOC [Compound 39, 9-[8-(2-Methoxy-ethyl)-8-aza-bicyclo[3.2.1]oct-3-ylidene]-9H-xanthene-3-carboxylic acid diethylamide]	8.43 nM	1680 nM	94.9 nM					
CCN(CC)C(=O)c1ccc2c(c1)Oc1ccccc1C2=C1CC2CCC(C1)N2CCSC [Compound 40, 9-[8-(Methylsulfanyl-ethyl)-8-aza-bicyclo[3.2.1]oct-3-ylidene]-9H-xanthene-3-carboxylic acid diethylamide]	12 nM	> 10000 nM	267 nM					
CCN(CC)C(=O)c1ccc2c(c1)Oc1ccccc1C2C1CCNCC1 (centres unmarked) [Compound 42, 9-Piperidin-4-yl-9H-xanthene-3-carboxylic acid diethylamide]				4%	8790 nM	266 nM	14.7 nM	
CCN(CC)C(=O)c1ccc2c(c1)Oc1ccccc1C2=C1CC2CCC(C1)N2Cc1ccccn1 [Compound 44]	0.15 nM	77.2 nM	0.873 nM	28%				
CCN(CC)C(=O)c1ccc2c(c1)Sc1ccccc1C2=C1CC2CCC(C1)N2 [Compound 48, 9-(8-Aza-bicyclo[3.2.1]oct-3-ylidene)-9H-thioxanthene-3-carboxylic acid diethylamide]	0.9 nM	> 100 nM	18.8 nM					
CCN(CC)C(=O)c1ccc2c(c1)Sc1ccccc1C2=C1CC2CCC(C1)N2CC1CC1 [Compound 49]	25 nM	> 100 nM	252 nM					
CCN(CC)C(=O)c1ccc2c(c1)Sc1ccccc1C2=C1CC2CCC(C1)N2CCCSC [Compound 50]	10.2 nM	> 100 nM	236 nM					
CCN(CC)C(=O)c1ccc2c(c1)Sc1ccccc1C2=C1CC2CCC(C1)N2CCO [Compound 51, 9-[8-(2Hydroxy-ethyl)-8-aza-bicyclo[3.2.1]oct-3-ylidene]-9H-thioxanthene-3-carboxylic acid diethylamide]	4.85 nM	> 100 nM	62.8 nM					
